According to ChEMBL document CHEMBL1133780, “Synthesis and antiparasitic activity of 2-(trifluoromethyl)-benzimidazole derivatives” (Bioorg Med Chem Lett, 2001):

Assays:
Rattus norvegicus [1] = species: Rattus norvegicus; assay: Tested for inhibition of tubulin polymerization in rat brain at a concentration of 3*10e-3 uM; format: functional
Giardia intestinalis = assay: In vitro antiprotozoal activity against Giardia lamblia; format: functional, organism-based; conditions: Giardia duodenalis
Rattus norvegicus [2] = species: Rattus norvegicus; assay: Tested for inhibition of tubulin polymerization in rat brain at a concentration of 0.015 uM; format: functional
Trichinella spiralis [3] = assay: Percent reduction of viability of Trichinella spiralis muscle larvae at a concentration of 3*10e-3 uM; format: functional
Entamoeba histolytica = assay: In vitro antiprotozoal activity against Entamoeba histolytica; format: functional, organism-based
Trichinella spiralis [4] = assay: Percent reduction of viability of Trichinella spiralis muscle larvae at a concentration of 3*10e-4 uM; format: functional
Rattus norvegicus [5] = species: Rattus norvegicus; assay: Tested for inhibition of tubulin polymerization in rat brain at a concentration of 3*10e-5 uM; format: functional
Trichinella spiralis [6] = assay: Percent reduction of viability of Trichinella spiralis muscle larvae at a concentration of 3*10e-6 uM; No reduction observed; format: functional, organism-based
Trichinella spiralis [7] = assay: Percent reduction of viability of Trichinella spiralis muscle larvae at a concentration of 3*10e-5 uM; format: functional
Rattus norvegicus [8] = species: Rattus norvegicus; assay: Tested for inhibition of tubulin polymerization in rat brain at a concentration of 0.024 uM; format: functional
Trichinella spiralis [9] = assay: Percent reduction of viability of Trichinella spiralis muscle larvae at a concentration of 3*10e-3 uM; No reduction observed; format: functional, organism-based
Trichinella spiralis [10] = assay: Percent reduction of viability of Trichinella spiralis muscle larvae at a concentration of 3*10e-4 uM; No reduction observed; format: functional, organism-based
Trichinella spiralis [11] = assay: Percent reduction of viability of Trichinella spiralis muscle larvae at a concentration of 3*10e-5 uM; No reduction observed; format: functional, organism-based
Trichinella spiralis [12] = assay: Percent reduction of viability of Trichinella spiralis muscle larvae at a concentration of 3*10e-6 uM; format: functional

Row | SMILES | IC50 (Giardia intestinalis) | IC50 (Entamoeba histolytica) | Viscosity (Rattus norvegicus [1]) | Viscosity (Rattus norvegicus [2]) | Reduction (Trichinella spiralis [3]) | Reduction (Trichinella spiralis [4]) | Viscosity (Rattus norvegicus [5]) | Reduction (Trichinella spiralis [6]) | Reduction (Trichinella spiralis [7]) | Viscosity (Rattus norvegicus [8]) | Reduction (Trichinella spiralis [9]) | Reduction (Trichinella spiralis [10]) | Reduction (Trichinella spiralis [11]) | Reduction (Trichinella spiralis [12])
1 | FC(F)(F)c1nc2cc(Cl)ccc2[nH]1 | 1280 nM | 22 nM | 6.7 | 7.14 | – | – | 6.59 | No reduction | – | 6.47 | No reduction | No reduction | No reduction | –
2 | Cc1ncc([N+](=O)[O-])n1CCO [METRONIDAZOLE] | 1220 nM | 350 nM | – | – | – | – | – | – | – | – | – | – | – | –
3 | Cn1c(C(F)(F)F)nc2cc(Cl)c(Cl)cc21 | 260 nM | 33 nM | 7.63 | 6.63 | 15% | 9% | 6.93 | – | 4% | 6.94 | – | – | – | 2%
4 | CCCSc1ccc2[nH]c(NC(=O)OC)nc2c1 [ALBENDAZOLE] | 37 nM | 56300 nM | 2.07 | – | 30% | 20% | 7.04 | – | 13% | – | – | – | – | 6%
5 | Cn1c(C(F)(F)F)nc2ccc(Cl)cc21 | 127 nM | 8 nM | 7.39 | 7.07 | – | – | 6.44 | No reduction | – | 7.26 | No reduction | No reduction | No reduction | –
6 | FC(F)(F)c1nc2ccccc2[nH]1 | 107 nM | 69 nM | 7.56 | 7.34 | 9% | 3% | 7.55 | No reduction | 1% | 6.92 | – | – | – | –

More lines, in order of falling IC50 (Giardia intestinalis), values ahead:

Row | IC50 (Giardia intestinalis) | IC50 (Entamoeba histolytica) | SMILES | Viscosity (Rattus norvegicus [1]) | Viscosity (Rattus norvegicus [2]) | Reduction (Trichinella spiralis [3]) | Reduction (Trichinella spiralis [4]) | Viscosity (Rattus norvegicus [5]) | Reduction (Trichinella spiralis [6]) | Reduction (Trichinella spiralis [7]) | Viscosity (Rattus norvegicus [8]) | Reduction (Trichinella spiralis [9]) | Reduction (Trichinella spiralis [10]) | Reduction (Trichinella spiralis [11]) | Reduction (Trichinella spiralis [12])
7 | 78 nM | 11 nM | FC(F)(F)c1nc2cc(Cl)c(Cl)cc2[nH]1 | 7.03 | 6.68 | 19% | 9% | 7 | No reduction | 1% | 7.22 | – | – | – | –
8 | 64 nM | 40 nM | Cn1c(C(F)(F)F)nc2ccccc21 | 7.41 | 7.31 | 12% | 9% | 6.68 | No reduction | 1% | 7.16 | – | – | – | –
9 | 42 nM | 46 nM | Cn1c(C(F)(F)F)nc2cc(Cl)ccc21 | 7.58 | 6.94 | 39% | 16% | 7.3 | – | 9% | 7.54 | – | – | – | 2%
